Activity calls are given as the source filed them.
How the values were obtained:
INS1 = assay: INS-1E survival protection against cytokine death – cell-based, luminescence, retest, dose response (AID 449756); type: functional; details: Rattus norvegicus;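 also: cell death triggered by IL-1 beta plus TNF-alpha plus IFN-gamma mixture; protective hits raise ATP signal compared with cytokine alone wells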
Escherichia coli [1] = assay: microbe, parasite or virus in culture
[2] = Luminescence Cell-Based Dose Retest to Confirm Inhibitors of Cancer Stem Cells. [Related pubchem assays (depositor defined):AID2717, AID2721]; type: functional; details: Homo sapiens
[3] = viability loss of HMLE_sh_eGFP cells – cell-based, luminescence, counter-screen for HMLE_sh_ECad selective toxicity project, dose response (AID 463074); type: functional, Homo sapiens;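 also: HMLE human mammary epithelial cells expressing control shRNA against eGFP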
Vero = assay: cells; type: functional, cell-based; details: Chlorocebus sabaeus
Escherichia coli [4] = assay: microbe, parasite or virus in culture; remark: listed apart in the source
[5] = molecular target: Delta-type opioid receptor (Homo sapiens, UniProt P41143); assay: Counterscreen for agonists of heterodimerization of the mu 1 (OPRM1) and delta 1 (OPRD1) opioid receptors: Luminescence-based cell-based high throughput dose response assay to identify agonists of OPRD1 homodimerization. [Related pubchem assays (depositor defined):AID504326, AID504355, AID504692, AID504904, AID504905]; type: functional
Sequence of Delta-type opioid receptor (P41143 whole entry): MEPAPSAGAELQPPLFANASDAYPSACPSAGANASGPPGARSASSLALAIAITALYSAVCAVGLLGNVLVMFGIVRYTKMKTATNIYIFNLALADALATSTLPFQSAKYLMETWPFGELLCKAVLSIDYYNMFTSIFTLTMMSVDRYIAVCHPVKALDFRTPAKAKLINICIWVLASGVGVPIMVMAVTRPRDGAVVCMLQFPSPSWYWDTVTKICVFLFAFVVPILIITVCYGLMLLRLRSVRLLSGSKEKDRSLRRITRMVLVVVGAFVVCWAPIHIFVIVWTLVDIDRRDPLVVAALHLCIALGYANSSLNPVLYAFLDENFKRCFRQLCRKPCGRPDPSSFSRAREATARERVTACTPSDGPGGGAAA

Mu-type opioid receptor = Mu-type opioid receptor (Homo sapiens, UniProt P35372); assay: Counterscreen for agonists of heterodimerization of the mu 1 (OPRM1) and delta 1 (OPRD1) opioid receptors: Luminescence-based cell-based high throughput dose response assay to identify agonists of OPRM1 homodimerization.; type: functional;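 also: U2OS cells expressing OPRM1 and beta-arrestin as split beta-galactosidase partners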
Sequence of Mu-type opioid receptor (P35372 whole entry): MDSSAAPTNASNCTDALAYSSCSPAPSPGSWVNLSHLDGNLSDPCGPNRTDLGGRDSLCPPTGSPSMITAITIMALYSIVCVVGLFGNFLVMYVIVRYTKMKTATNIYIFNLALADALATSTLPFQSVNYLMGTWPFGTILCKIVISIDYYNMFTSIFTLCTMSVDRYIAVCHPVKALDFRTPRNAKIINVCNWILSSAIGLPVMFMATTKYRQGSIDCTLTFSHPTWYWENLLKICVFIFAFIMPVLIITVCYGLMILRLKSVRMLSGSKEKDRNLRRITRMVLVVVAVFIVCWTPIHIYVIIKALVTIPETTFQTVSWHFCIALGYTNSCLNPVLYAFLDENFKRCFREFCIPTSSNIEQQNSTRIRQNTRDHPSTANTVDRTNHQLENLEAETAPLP

[6] = molecular target: 5-hydroxytryptamine receptor 5A (Homo sapiens, UniProt P47898); assay: Counterscreen for agonists of OPRM1-OPRD1 heterodimerization: luminescence-based cell-based high throughput dose response assay to identify agonists of 5-hydroxytryptamine (serotonin) 5A receptor (HTR5A). [Related pubchem assays (depositor defined):AID504326, AID504355, AID504692, AID504904, AID504905]; type: functional
Sequence of 5-hydroxytryptamine receptor 5A (P47898 whole entry): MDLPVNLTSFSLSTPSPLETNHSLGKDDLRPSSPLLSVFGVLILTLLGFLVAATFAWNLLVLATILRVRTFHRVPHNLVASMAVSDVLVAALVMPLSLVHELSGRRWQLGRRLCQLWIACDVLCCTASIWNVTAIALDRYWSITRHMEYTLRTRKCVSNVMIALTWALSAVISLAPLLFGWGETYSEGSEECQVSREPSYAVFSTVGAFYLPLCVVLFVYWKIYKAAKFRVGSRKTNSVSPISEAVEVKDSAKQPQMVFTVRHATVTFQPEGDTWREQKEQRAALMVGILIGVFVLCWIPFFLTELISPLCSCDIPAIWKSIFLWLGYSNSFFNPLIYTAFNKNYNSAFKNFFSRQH

Tumor necrosis factor = Tumor necrosis factor (Homo sapiens, UniProt P01375); assay: analog potency on TNFa NF-kB signaling – cell-based, revised, SAR follow-up (AID 2337); type: functional
Sequence of Tumor necrosis factor (P01375 whole entry, the tested form may be a part): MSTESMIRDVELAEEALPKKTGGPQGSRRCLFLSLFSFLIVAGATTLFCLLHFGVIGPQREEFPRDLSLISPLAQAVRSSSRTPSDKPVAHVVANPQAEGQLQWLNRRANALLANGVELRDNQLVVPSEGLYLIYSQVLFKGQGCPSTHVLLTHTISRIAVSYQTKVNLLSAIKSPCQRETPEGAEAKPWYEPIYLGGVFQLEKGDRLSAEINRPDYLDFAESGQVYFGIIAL

[7] = molecular target: Nucleotide-binding oligomerization domain-containing protein 1 (Homo sapiens, UniProt Q9Y239); assay: blockers of NOD1 pathway activity – revised, SAR follow-up (AID 2333); type: functional
Sequence of Nucleotide-binding oligomerization domain-containing protein 1 (Q9Y239 whole entry, the tested form may be a part): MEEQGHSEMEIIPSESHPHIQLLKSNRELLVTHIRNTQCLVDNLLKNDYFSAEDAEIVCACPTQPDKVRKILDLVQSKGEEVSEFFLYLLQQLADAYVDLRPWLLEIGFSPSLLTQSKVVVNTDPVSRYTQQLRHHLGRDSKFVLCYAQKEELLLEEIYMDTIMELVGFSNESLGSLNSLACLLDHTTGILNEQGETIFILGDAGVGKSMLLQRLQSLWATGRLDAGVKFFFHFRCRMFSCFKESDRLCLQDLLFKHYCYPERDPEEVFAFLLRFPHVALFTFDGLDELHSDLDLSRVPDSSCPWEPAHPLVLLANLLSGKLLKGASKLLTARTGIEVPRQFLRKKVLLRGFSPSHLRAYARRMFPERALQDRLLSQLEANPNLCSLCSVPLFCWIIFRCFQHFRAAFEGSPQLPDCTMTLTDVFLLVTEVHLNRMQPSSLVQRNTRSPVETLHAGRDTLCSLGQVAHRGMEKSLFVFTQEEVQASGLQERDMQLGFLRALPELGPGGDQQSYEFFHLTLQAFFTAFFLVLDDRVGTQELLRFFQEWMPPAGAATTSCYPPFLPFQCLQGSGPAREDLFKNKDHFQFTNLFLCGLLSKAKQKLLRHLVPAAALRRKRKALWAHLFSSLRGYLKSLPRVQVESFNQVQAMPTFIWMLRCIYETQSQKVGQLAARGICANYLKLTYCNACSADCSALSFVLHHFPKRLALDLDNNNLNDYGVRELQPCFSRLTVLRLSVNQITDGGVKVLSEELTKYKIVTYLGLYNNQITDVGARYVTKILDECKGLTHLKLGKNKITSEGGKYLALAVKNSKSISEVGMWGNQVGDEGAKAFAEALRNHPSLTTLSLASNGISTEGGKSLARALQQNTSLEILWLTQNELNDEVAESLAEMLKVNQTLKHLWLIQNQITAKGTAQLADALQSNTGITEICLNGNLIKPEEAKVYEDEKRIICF

[8] = molecular target: Nucleotide-binding oligomerization domain-containing protein 2 (Homo sapiens, UniProt Q9HC29); assay: PubChem AID 2334; type: functional
Sequence of Nucleotide-binding oligomerization domain-containing protein 2 (Q9HC29 whole entry, the tested form may be a part): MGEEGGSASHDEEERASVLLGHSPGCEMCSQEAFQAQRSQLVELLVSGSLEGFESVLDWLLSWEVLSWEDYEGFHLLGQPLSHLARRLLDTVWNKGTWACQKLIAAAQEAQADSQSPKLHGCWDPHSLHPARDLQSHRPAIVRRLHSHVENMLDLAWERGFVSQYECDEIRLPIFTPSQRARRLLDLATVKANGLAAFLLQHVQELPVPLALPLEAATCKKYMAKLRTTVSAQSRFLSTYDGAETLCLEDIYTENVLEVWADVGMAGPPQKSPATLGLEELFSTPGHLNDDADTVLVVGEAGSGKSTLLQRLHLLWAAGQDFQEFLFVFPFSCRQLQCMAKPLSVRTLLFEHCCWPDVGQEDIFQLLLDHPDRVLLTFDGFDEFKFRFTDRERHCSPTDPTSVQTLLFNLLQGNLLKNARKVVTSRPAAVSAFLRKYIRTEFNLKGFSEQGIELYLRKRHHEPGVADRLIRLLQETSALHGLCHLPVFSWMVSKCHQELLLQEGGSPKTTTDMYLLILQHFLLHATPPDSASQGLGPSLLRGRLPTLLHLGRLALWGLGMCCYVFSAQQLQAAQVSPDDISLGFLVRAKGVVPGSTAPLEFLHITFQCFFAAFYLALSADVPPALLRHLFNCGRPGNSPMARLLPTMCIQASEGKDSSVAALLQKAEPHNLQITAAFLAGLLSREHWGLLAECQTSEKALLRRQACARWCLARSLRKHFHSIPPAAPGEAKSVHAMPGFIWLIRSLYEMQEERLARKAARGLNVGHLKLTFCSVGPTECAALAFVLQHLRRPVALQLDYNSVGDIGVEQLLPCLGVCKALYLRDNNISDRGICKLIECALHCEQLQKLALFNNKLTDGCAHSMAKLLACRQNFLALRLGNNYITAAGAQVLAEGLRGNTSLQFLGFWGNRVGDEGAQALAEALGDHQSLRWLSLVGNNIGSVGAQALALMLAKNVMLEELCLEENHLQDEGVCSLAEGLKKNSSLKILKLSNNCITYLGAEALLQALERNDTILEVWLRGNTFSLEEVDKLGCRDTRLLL

HEK293 = assay: cells; details: Homo sapiens;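 also: cells exposed to compound for 14 hours overnight before viability readout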

**Q.** For `C=CCc1c(C)nc(C)nc1N/N=C/c1ccc(N(C)C)cc1`, which AC50 (INS1) is on record?
**A.** 2.54 µM (active)

**Q.** What about the AC50 (Escherichia coli [1]) of the same compound?
**A.** 26.4 µM (active)

**Q.** Which AC50 [2] does the source give for `NC(=O)CC(NC(=O)Cc1cccc2ccccc12)c1ccc(NCCOc2ccccc2)c([N+](=O)[O-])c1` (stereo unspecified) here?
**A.** 147 µM (active)

**Q.** And the AC50 [3]?
**A.** 22.9 µM (active)

**Q.** For `CCOC(=O)c1c(-c2cccc3ccccc23)csc1NC(=O)C1C2CCC(O2)C1C(=O)O` (stereo unspecified), which IC50 (Vero) is on record?
**A.** > 25 µM (active)

**Q.** With `O=C(C[C@H]1C[C@H](C(=O)N2CCOCC2)[C@@]2(CCC3CCCC3)c3[nH]c4cc(-c5ccco5)ccc4c3CCN2C1=O)NCCCn1ccnc1` as the compound, how does the AC50 (Escherichia coli [4]) read?
**A.** 59.9 µM (active)

**Q.** For `COc1ccc(C2CC(c3ccc(OC)cc3)n3nc(NC(=O)c4cccs4)nc3N2)cc1` (stereo unspecified), which EC50 [5] is on record?
**A.** > 92.5 µM (inactive)

**Q.** And the EC50 (Mu-type opioid receptor)?
**A.** > 92.5 µM (inactive)

**Q.** And the EC50 [6]?
**A.** > 92.5 µM (inactive)

**Q.** Which IC50 (Tumor necrosis factor) does the source give for `Cn1nccc1C(=O)N[C@@H]1CCCc2c1cnn2-c1ccccc1F` here?
**A.** > 20 µM (inactive)

**Q.** What about the IC50 [7] of the same compound?
**A.** 18.7 µM (active)

**Q.** And the IC50 [8]?
**A.** > 20 µM (inactive)

**Q.** And the IC50 (HEK293)?
**A.** > 20 µM (inactive)

**Q.** Which AC50 [2] does the source give for `O=C(NCCc1ccc(Cl)cc1Cl)c1cc([N+](=O)[O-])cnc1O` here?
**A.** 4.14 µM (active)

**Q.** What about the AC50 [3] of the same compound?
**A.** 61.9 µM (active)

**Q.** With `CCCCN(C)CCn1c(=S)[nH]c2ncccc2c1=O` as the compound, how does the AC50 (Escherichia coli [1]) read?
**A.** 29.7 µM (active)
